{"source": "paper PMC2825241", "about": "“Uptake of purines in Plasmodium falciparum-infected human erythrocytes is mostly mediated by the human Equilibrative Nucleoside Transporter and the human Facilitative Nucleobase Transporter” (2010)", "target": "T1, human equilibrative nucleoside transporter (hENT1) (Homo sapiens, UniProt Q99808)", "T1 construct": "gene SLC29A1; endogenous transporter in intact human erythrocytes", "T1 sequence (Q99808 2-456)": "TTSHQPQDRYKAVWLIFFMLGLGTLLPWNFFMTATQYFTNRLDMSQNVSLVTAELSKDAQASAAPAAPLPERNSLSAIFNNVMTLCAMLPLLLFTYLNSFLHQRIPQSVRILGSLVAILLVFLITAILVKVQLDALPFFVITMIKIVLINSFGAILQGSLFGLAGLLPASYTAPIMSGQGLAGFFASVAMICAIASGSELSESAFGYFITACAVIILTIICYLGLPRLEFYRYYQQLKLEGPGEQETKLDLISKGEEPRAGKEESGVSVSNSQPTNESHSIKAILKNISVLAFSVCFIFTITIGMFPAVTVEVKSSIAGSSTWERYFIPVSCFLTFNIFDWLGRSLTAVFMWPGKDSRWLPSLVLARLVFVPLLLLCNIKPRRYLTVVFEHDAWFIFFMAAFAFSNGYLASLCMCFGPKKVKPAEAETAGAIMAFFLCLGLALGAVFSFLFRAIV", "test": "saturable [3H]-uridine uptake into uninfected human erythrocytes (Km)", "format": "cell-based", "data": [{"smiles": "O=c1ccn([C@@H]2O[C@H](CO)[C@@H](O)[C@H]2O)c(=O)[nH]1", "note": "[uridine]", "values": [{"measurement": "Km", "result": "177 ± 30", "unit": "µM"}]}]}
